# In US9408891B2, “Methods of using gelsolin to treat or prevent bacterial sepsis” (priority 2003, dated 2016):
# “Also recorded” adds a separate entry of the source. Ends that are not written are not given here. * marks the point of attachment. RhodamineB = CCN(CC)c1ccc2c(-c3ccccc3C(=O)*)c3ccc(=[N+](CC)CC)cc-3oc2c1
# Experiments:
# [1] = biological target: gelsolin (Homo sapiens, UniProt P06396); assay: Actin severing activity of gelsolin (50 nM) with LTA or lysolipids; type: biochemical; details: for inhibition of gelsolin by lysolipids: lipid below 1 μM
# gelsolin, sequence (P06396 28-782): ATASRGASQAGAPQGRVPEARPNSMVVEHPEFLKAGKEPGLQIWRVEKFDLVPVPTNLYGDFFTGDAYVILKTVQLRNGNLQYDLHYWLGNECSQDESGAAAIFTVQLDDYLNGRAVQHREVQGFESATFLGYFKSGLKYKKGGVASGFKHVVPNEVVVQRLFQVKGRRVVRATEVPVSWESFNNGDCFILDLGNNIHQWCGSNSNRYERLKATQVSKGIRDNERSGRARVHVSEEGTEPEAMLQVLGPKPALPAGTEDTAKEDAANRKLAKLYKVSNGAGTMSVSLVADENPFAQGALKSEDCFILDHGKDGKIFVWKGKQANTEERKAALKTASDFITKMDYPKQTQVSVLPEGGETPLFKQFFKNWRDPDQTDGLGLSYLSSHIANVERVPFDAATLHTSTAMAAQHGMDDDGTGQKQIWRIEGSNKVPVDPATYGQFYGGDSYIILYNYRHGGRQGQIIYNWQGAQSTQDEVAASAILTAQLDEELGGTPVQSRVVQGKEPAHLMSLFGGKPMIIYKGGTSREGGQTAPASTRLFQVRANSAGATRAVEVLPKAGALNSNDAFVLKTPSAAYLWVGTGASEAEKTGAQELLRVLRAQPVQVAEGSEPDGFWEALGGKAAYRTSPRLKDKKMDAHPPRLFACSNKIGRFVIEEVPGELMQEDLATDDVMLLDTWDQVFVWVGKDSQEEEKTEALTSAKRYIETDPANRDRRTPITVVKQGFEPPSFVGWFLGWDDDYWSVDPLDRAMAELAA
# Protocol: (§1) The tested gelsolin concentration was 50 nM; LTA ranged from 0-50 μM; Pyrene-F-actin was 0.3 μM. Recording changes in fluorescently-labeled (rhodamine B-labeled) gelsolin peptide PBP10 (10 μM), indicates a specific interaction between gelsolin and LTA.
# [2] = biological target: T1, recombinant human gelsolin (rhGLS) (Homo sapiens, UniProt P06396); assay: Actin filament severing activity of purified gelsolin (pyrene F-actin depolymerization); type: biochemical; details: molar basis comparison
# T1 construct: purchased Biogen IDEC, Inc., Cambridge, Mass; host or cells: E. coli
# T1 sequence (P06396 28-782): as above
# Protocol: To determine gelsolin's severing activity, rates of fluorescence decrease were evaluated during depolymerization. Monomeric G-actin was prepared from an acetone powder of rabbit skeletal muscle according to previously published methods (Spudich et al., J. Biol. Chem […]). The non-polymerizing solution contained 2 mM TRIS, 0.2 mM CaCl2, 0.5 mM ATP (adenosine triphosphate), 0.2 mM DTT (dithiothreitol) pH 7.4. Actin was polymerized by adding 150 mM KCl and 2 mM MgCl2 to the G-actin solutions and incubating for 1 hour at room temperature.
# For F-actin severing assays, in general, a small volume (typically 5 μl) of the gelsolin composition is added to a similar volume of pyrene-labeled F-actin at a concentration adjusted to provide an actin:gelsolin ratio of approximately 10:1 (typically 1 μM gelsolin and 10 μM actin). This mixture is the diluted to 0.5 μM in a larger volume of F-actin buffer, and the filament severing efficiency is calculated from the initial slope of the fluorescence change. This reflects the rate of depolymerization that, in turn, is proportional to the number of cuts made by gelsolin. The LPS/gelsolin reaction can be done under any ionic condition, and the addition to F-actin requires the presence of […] Ca^2+ to activate the gelsolin. […] The actin nucleation reaction is similar except that in the latter case, the gelsolin/LPS mixture is added to a more dilute solution of G-actin (typically, 1 or 2 μM) in low ionic strength buffer followed immediately by addition of 150 mM KCI and 2 mM MgCl2 to initiate polymerization.
# (§2) As shown, recombinant human gelsolin (rhGLS) (FIG. 4A) and blood serum (FIG. 4B) severing activity was measured in 0.4 μM pyrene-labeled F-actin samples (polymerized with 50% pyrene-labeled G-actin), after adding gelsolin (16 nM)/serum (2.5 μl), or their combination with one of the following: LPS (from different species), PIP2 (phosphatidyl-inositol-4,5-bisphosphate), LPA (lysophosphatidic acid), lipid A (the LPS derivative lacking polysaccharide) or PS (phosphatidylserine). The fluorescence intensity of F-pyrene actin was then monitored for 10 minutes, and the severing activity was calculated based on decreasing fluorescence. Severing activity was determined from a decrease in rate of fluorescence during depolymerization, and the depolymerization rate was calculated from the slope of the early decrease in fluorescence.
# [3] = tested on: human platelets; assay: Collagen-induced aggregation of gel-filtered platelets; type: cell-based
# Protocol: To isolate human platelets, blood from healthy volunteers was collected in acid-citrate dextrose. Platelet-rich plasma obtained after centrifugation (15 minutes, 110×g) at room temperature, was supplemented with apyrase (0.5 U/ml) (Sigma-Aldrich) to degrade excess nucleotides. Platelets were sedimented by centrifugation (10 minutes, 1000×g), suspended in buffer A (139 mM NaCl, 2.8 mM KCl, 0.8 mM MgCl2, 0.8 mM KH2PO4, 8.9 mM NaHCO3, 10 mM HEPES, 5.6 mM glucose, 0.3% albumin, pH 7.35) and filtered on a 50 ml column of Sepharose 2B to obtain gel-filtered platelets (GFP).
# Platelet aggregation was initiated by adding collagen (10 μg/ml) (Chrono-Log Corp., Havertown, Pa.). Platelet aggregation was monitored using a Chronolog Lumi-Aggregometer (Chrono-Log Corp.). Changes in light transmission were recorded for 10 minutes, using a PowerLab/200 instrument and MacLab Chart program Version 3.2. When required before activation, the platelet suspension was reacted with LPS, or LPS-preincubated with the SEQ ID No:1 peptide (QRLFQVKGRR).
# [4] = Neutron scattering of LPS with gelsolin peptide; type: physicochemical; details: preliminary neutron scattering
# From the text: The molecular structure of LPS and its complexes with proteins can be measured at nm resolution by X-ray and neutron scattering, as well as by electron and atomic force microscopy.
# At present, the calculated diameter (36 nm) is greater than that which has been previously reported for pure LPS micelles, and the difference in size may reflect another structural feature. In additional experiments with more variations in gelsolin/LPS or peptide, LPS ratios will reveal if there are significant changes in LPS particle structure when these peptides bind LPS.
# [5] = tested on: NF-κB translocation in rat primary astrocytes; assay: NF-κB translocation to the nucleus in astrocytes; type: cell-based; details: astrocytes, 2 hour; LPS 2 μM or TNF-α 10 ng/ml
# Protocol: Rat primary astrocytes were obtained from prenatal rats and maintained for 14 days in culture before use. Embryos (E17-E19) were removed by caesarian section from a Sprague-Dawley rat and the hippocampi were surgically removed. The tissue was digested in trypsin/DNAse at 37° C., centrifuged (1000×5 min) and filtered to derive suspensions from each pup. Cells were grown in an incubator at 37° C. and 5% CO2 in DMEM (Dulbecco's Modified Eagle's Medium; BioWhittaker/Cambrex BioScience, East Rutherford, N.J.), supplemented with Ham's F12 (Sigma-Aldrich, St. Louis, Mo.) and 5% fetal bovine serum (FBS) (Hyclone, Logan, Utah) for 7 days, followed by an additional 7 days in Neurobasal medium (Gibco, Grand Island, N.Y.) also supplemented with 5% FBS, 2 mM l-glutamine, 50 μg/ml streptomycin and 50 U/ml penicillin. In each experiment, the medium was changed to serum-free at 6-12 hours prior to addition of LPS, TNF-α, or gelsolin.
# HAECs and astrocytes cultures were incubated for 10 minutes in medium containing 10 μg/ml LPS alone, or LPS that had been pre-incubated with 0.16 mg/ml of human gelsolin. Cultures were fixed with ice-cold methanol and immunostained for F-actin with fluorescein isothiocyanate (FITC)-labeled phalloidin (Molecular Probes, Eugene, Oreg.). In astrocyte cultures, NF-κB translocation was manipulated by a 2 hour incubation in serum-free medium containing one of the following: 10 ng/ml TNF-α, 10 μg/ml LPS alone, or LPS that had been preincubated with 0.16 mg/ml human gelsolin. Location of transcription factor nuclear factor-kappaB (NF-κB) was observed using a monoclonal antibody to NF-κB (Molecular Probes), and cell nuclei were detected by counter-staining with 4′, 6-diamidino-2-phenylindole dihydrochloride (DAPI) (Sigma).
# [6] = biological target: T2, PBP10 (PIP2-binding site of gelsolin) (Homo sapiens, UniProt P06396); assay: Rhodamine-B fluorescence change of gelsolin peptide PBP10 after adding lipids; details: for fluorescence quenching / change of rhodamine-B peptide: 2 μM peptide, buffer A pH 7.0, 15 min
# T2 construct: made in house; host or cells: solid phase peptide synthesis
# Protocol: (§3) Therefore, to determine changes of gelsolin OD at 280 nm, different amounts of LPS, LPA and PS were added to recombinant human gelsolin (rhGLS) solutions and OD emission spectra were recorded using spectrophotometer Genesys 6 (Thermo-Spectronic, USA).
# Interaction of LPS and gelsolin was examined using rhodamine B- and pyrene-labeled SEQ ID No:1 (QRLFQVKGRR). The effect of LPS on gelsolin was determined in terms of the rhodamine-B fluorescent changes of PBP10 peptide in the presence of different lipids (FIG. 1C); and the fluorescence emission spectra of pyrene-labeled SEQ ID No:1 (2 μM) in the presence of LPS from Escherichia coli (1.2 μM), PIP2 (0.82 μM) and LPA (0.82 μM) (FIG. 1D) The results using the pyrene-derivatized gelsolin peptide confirmed the LPS induced clustering of the peptide with resulting excimer fluorescence of the pyrene group, which was evident as a large increase in fluorescence emission at 480 nm.
# as §1
# [7] = tested on: human neutrophils / human aortic endothelial cells (HAEC); assay: Neutrophil adhesion to LTA-stimulated HAEC; type: cell-based; details: LTA 10 μg/ml
# From the text: To investigate whether gelsolin can prevent gram-positive bacterial inflammation, the effect of LTA-mediated activation of human neutrophils was examined. Neutrophils were selected because their adhesion to human aorta endothelial cells (HAEC) is a hallmark of inflammation.
# Neutrophils were isolated from human blood using the endotoxin-free Lympholyte-poly kit (Cedarlane, Ontario, Canada). The isolated neutrophil cells were resuspended in RPMI media. […] To quantify the adhesion, the neutrophils were labeled with calcein-AM (5 μM for 30 minutes at 37° C.).
# [8] = biological target: T1, recombinant human gelsolin (rhGLS); assay: Change of gelsolin OD at 280 nm after adding lipids; type: binding; details: OD 280 nm
# Protocol: as §3
# [9] = biological target: T3, gelsolin activity in whole human serum (Homo sapiens, UniProt P06396); assay: Actin filament severing activity of whole human serum; type: biochemical; details: larger amounts needed than with pure gelsolin
# T3 construct: from tissue; host or cells: whole human serum (2.5 µl)
# T3 sequence (P06396 28-782): as above
# Protocol: as §2
# [10] = Solid phase binding of 3H-LPS to peptide-coated wells; parameters: species or system Salmonella minnesota; details: for binding of 3H-LPS to peptide-coated surfaces: solid phase, wells coated with peptide
# Protocol: To provide chemical and functional evidence that gelsolin binds LPS through its lipid-binding domain, a solid phase assay was conducted in which radiolabeled LPS was added to wells coated with different amounts of rhodamine-B-labeled-SEQ ID No:1 (rhodamine-B-QRLFQVKGRR, derived from the PIP2-binding site of gelsolin and termed “PBP10”), or to a truncated peptide (rhodamine-B-QRL), in the absence or presence of unlabeled LPS, respectively.
# Tritium-labeling of LPS was done by a modification of the procedure of Watson and Riblet (Watson et al., J. Immunol 114:1462-8 (1975)). A sample (2 mg) of LPS from Salmonella minnesota Re595 (Sigma Chemical Co., St. Louis, Mo.) was oxidized (150 minutes, 20° C.) with sodium periodate (3×10^−2 M). After destruction of the oxidant with 1.0 M ethylene glycol, aldehyde groups were reduced (18 hours at 4° C.) with an ice-cold solution of NaB [^3H]4 (0.46 GBq, 481 GBq/mmole, wherein GBq refers to a unit of radioactivity) (Amersham-Pharmacia Biotech, Buckinghamshire, England) in 200 μl of ice-cold borate buffer (0.05 M, pH 9.5). Excess sodium borohydride was destroyed with 5 μl of acetic acid. After two washings (centrifugation at 100,000×g for 15 minutes) in 400 μl of an ice-cold water-ethanol mixture (1:1 by vol.), the radiolabeled [^3H]-LPS (9×10^5 cpm/μg; 2×10^3 cpm/pmole) was stored at −20° C. until used.
# To measure [^3H] labeled-LPS-binding, polystyrene ELISA-type microplates (96 wells) were coated with PBP10 or rhodamine-B-QRL (RhB-QRL) by incubation for 18 hours at 4° C. with a solution (100 μl, 500 pmole/well) in saline. After three washings with 100 μl saline, the wells were then incubated at room temperature with [^3H]-LPS (360,000 c.p.m.), in the presence or absence of unlabeled LPS (20 μg/well), in a binding medium (100 μl) containing bovine serum albumin (50 μg) in saline. After 3 hours of incubation, the plates were washed three times with 100 μl saline washes, and the remaining bound radioactivity was measured.
molecule,measurement,setting,value
"CCCCCCCCCCCCC/C=C/[C@@H](O)[C@@H](N)COP(=O)(O)OCC[N+](C)(C)C [SPC, Sphingosylphosphocholine]",inhibition of gelsolin by lysolipids,[1],at least as strongly as lysophosphatidic acid (LPA); also recorded: also inhibit gelsolin
Lipid A,inhibitory effect on severing activity of purified gelsolin,[2],"weaker but still significant inhibitory effect; also recorded: weaker, but detectable inhibition; also recorded: weaker, but still significant inhibitory effect"
"QRLFQVKGRR (peptide fragment of gelsolin) [gelsolin SEQ ID No:1, Gelsolin residues 160-169 peptide]",reversal of LPS inhibition of collagen-induced platelet activation,"[3]; peptide added to LPS before addition to platelets, collagen 10 μg/ml","restored, in a peptide concentration-dependent manner"
same,effect of peptide alone on collagen-mediated platelet functions,[3]; without LPS,had no effect on collagen-mediated platelet functions
same,effect of peptide on calculated diameter of LPS,[4],"small, but significant increase in calculated diameter of LPS"
TNF-α,induction of NF-κB translocation to the nucleus,[5],caused NF-κB translocation to the nucleoplasm
lipoteichoic acid [LTA],binding to PBP10 judged by changes in PBP10 fluorescence,[6]; PBP10 10 μM,approximately the same avidity as PIP2; also recorded: approximately the same efficiency as PIP2; also recorded: binds to the PIP2-binding site within the PBP10 peptide
same,stimulation of neutrophil binding to the endothelial surface,[7],stimulated binding of calcein AM-labeled neutrophils
same,inhibition of gelsolin's actin severing activity,"[1]; LTA 0-50 μM, pyrene-F-actin 0.3 μM",nearly as well as LPS does; also recorded: potent inhibitor
lysophosphatidic acid [LPA],effect on absorbance of gelsolin,[8],diminished the absorbance of gelsolin
same,inhibitory effect on severing activity of purified gelsolin,[2],strongly inhibited
same,inhibition of gelsolin activity in whole human serum,[9],much less effective in serum than in pure solution; also recorded: appeared to lack its effect in serum
"phosphatidylinositol-4,5-bisphosphate [PIP2]",fluorescence quenching / change of rhodamine-B peptide,[6],induced identical concentration-dependent fluorescence quenching
same,inhibition of gelsolin activity in whole human serum,[9],able to inhibit gelsolin activity
platelet activating factor [PAF],inhibition of gelsolin by lysolipids,[1],do not inhibit gelsolin
rhodamine-B-QRL,binding of 3H-LPS to peptide-coated surfaces,[10],did not bind LPS
same,fluorescence quenching / change of rhodamine-B peptide,[6],no fluorescence change
rhodamine-B-QRLFQVKGRR (RhodamineB-QRLFQVKGRR) [PBP10],reduction of 3H-LPS binding by excess unlabeled LPS,[10]; 5-fold excess of unlabeled LPS,approximately 50%
same,binding of 3H-LPS to peptide-coated surfaces,[10],saturably bound; also recorded: bound in a saturable manner
same,inhibition of labeled LPS binding in the presence of excess LPS,[10]; unlabeled LPS 20 μg/well,substantial inhibition
